Results from patent publication US8198311B2, “Modulators of glucocorticoid receptor, AP-1, and/or NF-κB activity and use thereof” (Bristol-Myers Squibb Company, priority 2006, dated 2012).

Legend:
[1] = biological target: T1, human full-length glucocorticoid receptor (Homo sapiens, UniProt P04150); assay: Glucocorticoid Receptor Binding Assay (II), fluorescence polarization competitor kit (Fluormone GS1); details: cell lysate with recombinant human full-length GR
T1 construct: recombinantly expressed human full-length glucocorticoid receptor; purchased PanVera Co., Madison, Wis; P2816
T1 sequence (P04150 1-777): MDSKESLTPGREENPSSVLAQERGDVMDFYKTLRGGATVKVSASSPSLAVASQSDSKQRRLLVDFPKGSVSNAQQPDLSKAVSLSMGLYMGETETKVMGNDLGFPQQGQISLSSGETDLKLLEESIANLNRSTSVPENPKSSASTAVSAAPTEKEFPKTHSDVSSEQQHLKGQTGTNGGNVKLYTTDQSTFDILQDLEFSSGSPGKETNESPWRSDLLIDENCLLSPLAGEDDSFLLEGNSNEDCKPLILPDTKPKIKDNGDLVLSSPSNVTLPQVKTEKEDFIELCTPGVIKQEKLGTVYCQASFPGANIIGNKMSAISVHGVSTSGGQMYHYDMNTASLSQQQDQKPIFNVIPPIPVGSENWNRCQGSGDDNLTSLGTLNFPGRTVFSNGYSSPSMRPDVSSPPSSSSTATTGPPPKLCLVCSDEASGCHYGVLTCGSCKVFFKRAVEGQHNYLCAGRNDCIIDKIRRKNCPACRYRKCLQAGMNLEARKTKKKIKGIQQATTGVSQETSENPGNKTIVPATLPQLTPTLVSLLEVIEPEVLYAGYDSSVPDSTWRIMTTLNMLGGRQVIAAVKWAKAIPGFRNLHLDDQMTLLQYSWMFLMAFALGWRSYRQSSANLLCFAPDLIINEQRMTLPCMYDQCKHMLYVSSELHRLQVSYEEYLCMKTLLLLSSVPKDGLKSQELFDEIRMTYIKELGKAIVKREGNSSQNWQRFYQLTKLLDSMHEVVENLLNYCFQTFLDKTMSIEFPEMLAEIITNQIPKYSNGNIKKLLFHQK
Procedure: In order to measure the binding of compounds on the glucocorticoid receptor a commercially available kit was used (Glucocorticoid receptor competitor assay kit, PanVera Co., Madison, Wis., P2816). Briefly, a cell lysate containing recombinantly expressed human full-length glucocorticoid receptor was mixed with a fluorescently labeled glucocorticoid (1 nM Fluormone GS1) in the presence or absence of test compound. After one hour at room temperature, the fluorescence polarization (FP) of the samples were measured. […] Test molecules were analyzed in the concentration range from 2.4 nM to 40 microMolar.

[2] = biological target: T2, human glucocorticoid receptor (Homo sapiens, UniProt P04150); assay: Glucocorticoid Receptor Binding Assay (I), fluorescence polarization competitor kit (Fluormone GS Red); details: purified human recombinant full-length GR
T2 construct: purified human recombinant full-length glucocorticoid receptor (2 nM); purchased Invitrogen Part # 2893
T2 sequence (P04150 1-777): T1 sequence (P04150 1-777)
In short: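 Fluorescence polarization competition: full-length recombinant human GR (2 nM) incubated with 1 nM Fluormone GS Red plus test compound (8.5E-05 to 5 μM) for 2 h at room temperature in the dark before FP read-out.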

[3] = test system: AP-1 induced transcriptional activity; assay: Cellular Transrepressional Assay (AP-1 luciferase reporter in A549 cells, PMA-activated); assay type: cell-based; details: Homo sapiens, A549, 7 h, pAP-1-Luc, 10 ng/ml PMA, read-out: AP-1 (EC50, nM) (Cellular Transrepression Assay)
In short: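 A549 cells stably carrying a 7×AP-1-luciferase reporter, stimulated with 10 ng/ml PMA with or without compound (0.1 nM-40 μM) for 7 h. Luciferase luminescence read 10 min after reagent addition; repression is percentage decrease of PMA-alone signal, EC50 by curve fitting.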

SMILES	Ki [1] [nM]	Ki [2] [nM]	EC50 [3] [nM]
CC(C)(C)NC(=O)NCC(C)(C)[C@@H](c1ccccc1)c1ccc2c(cnn2-c2ccc(F)cc2)c1 [Example 9, (S)-1-tert-butyl-3-(3-(1-(4-fluorophenyl)-1H-indazol-5-yl)-2,2-dimethyl-3-phenylpropyl)urea]	5.6	8.3	29
CC(C)CC(c1ccc2c(cnn2-c2ccc(F)cc2)c1)C(C)(C)CNC(=O)NC1CC1 (centres unmarked) [Example 26, 1-cyclopropyl-3-(3-(1-(4-fluorophenyl)-1H-indazol-5-yl)-2,2,5-trimethylhexyl)urea]	8.6	3.1	965
CC(C)CC(c1ccc2c(cnn2-c2ccc(F)cc2)c1)C(C)(C)CNC(=O)NC1CCC1 (centres unmarked) [Example 27, 1-cyclobutyl-3-(3-(1-(4-fluorophenyl)-1H-indazol-5-yl)-2,2,5-trimethylhexyl)urea]	6.4	4.6	219
CC(C)CC(c1ccc2c(cnn2-c2ccc(F)cc2)c1)C(C)(C)CNC(=O)NC(C)(C)C (centres unmarked) [Example 28, 1-tert-butyl-3-(3-(1-(4-fluorophenyl)-1H-indazol-5-yl)-2,2,5-trimethylhexyl)urea]	4.9	4.2	21
CC(C)CC(c1ccc2c(cnn2-c2ccc(F)cc2)c1)C(C)(C)CNC(=O)NC(C)(C)CO (centres unmarked) [Example 29, 1-(3-(1-(4-fluorophenyl)-1H-indazol-5-yl)-2,2,5-trimethylhexyl)-3-(1-hydroxy-2-methylpropan-2-yl)urea]	8	2.5	86
CC(C)CC(c1ccc2c(cnn2-c2ccc(F)cc2)c1)C(C)(C)CNC(=O)N1CCCC(C)(C)C1 (centres unmarked) [Example 30, N-(3-(1-(4-fluorophenyl)-1H-indazol-5-yl)-2,2,5-trimethylhexyl)-3,3-dimethylpiperidine-1-carboxamide]	27	8.5	> 10000
CC(C)n1ncc2cc([C@H](c3ccccc3)C(C)(C)CNS(=O)(=O)CC(F)(F)F)ccc21 [Example 87, (S)—N-(2,2-Dimethyl-3-(1-isopropyl-1H-indazol-5-yl)-3-phenylpropyl)-2,2,2-trifluoroethanesulfonamide]	33	–	> 10000
O=S(=O)(CC(F)(F)F)NCC1CC1(c1ccccc1)c1ccc2c(cnn2-c2ccc(F)cc2)c1 (centres unmarked) [Example 89, 2,2,2-trifluoro-N-((2-(1-(4-fluorophenyl)-1H-indazol-5-yl)-2-phenylcyclopropyl)methyl)ethanesulfonamide]	43	–	> 10000
CC(C)(CNc1nncs1)C(c1ccccc1)c1ccc2c(cnn2-c2ccc(F)cc2)c1 (centres unmarked) [Example 109, N-(3-(1-(4-Fluorophenyl)-1H-indazol-5-yl)-2,2-dimethyl-3-phenylpropyl)-1,3,4-thiadiazol-2-amine]	9.2	–	43
CC(C)(CNC(=O)C(F)(F)F)C(c1ccccc1)c1ccc2c(cnn2C2CCCCCC2)c1 (centres unmarked) [Example 114, N-(3-(1-Cycloheptyl-1H-indazol-5-yl)-2,2-dimethyl-3-phenylpropyl)-2,2,2-trifluoroacetamide]	33	–	> 10000
CC(C)(C(O)c1ccccc1)C(c1ccccc1)c1ccc2c(cnn2-c2ccc(F)cc2)c1 (centres unmarked) [Example 121, 3-(1-(4-fluorophenyl)-1H-indazol-5-yl)-2,2-dimethyl-1,3-diphenylprop an-1-ol]	69	–	3850
CC(C)(C(O)c1cccs1)C(c1ccccc1)c1ccc2c(cnn2-c2ccc(F)cc2)c1 (centres unmarked) [Example 123, 3-(1-(4-fluorophenyl)-1H-indazol-5-yl)-2,2-dimethyl-3-phenyl-1-(thiophen-2-yl)propan-1-ol]	71	–	> 10000
CC(C)(C(O)Cc1ccccc1)C(c1ccccc1)c1ccc2c(cnn2-c2ccc(F)cc2)c1 (centres unmarked) [Example 124, 4-(1-(4-fluorophenyl)-1H-indazol-5-yl)-3,3-dimethyl-1,4-diphenylbutan-2-ol]	75	–	> 10000
CC(C)(C(=O)c1ccccc1)C(c1ccccc1)c1ccc2c(cnn2-c2ccc(F)cc2)c1 (centres unmarked) [Example 125]	14	–	> 10000
CC(C)(C(=O)C1CC1)C(c1ccccc1)c1ccc2c(cnn2-c2ccc(F)cc2)c1 (centres unmarked) [Example 126]	12	–	> 10000
CC(C)(C(=O)c1cccs1)C(c1ccccc1)c1ccc2c(cnn2-c2ccc(F)cc2)c1 (centres unmarked) [Example 127]	7.8	–	5870
CC(C)(C(c1ccccc1)c1ccc2c(cnn2-c2ccc(F)cc2)c1)C(O)(c1ccccc1)C(F)(F)F (centres unmarked) [Example 129, 1,1,1-Trifluoro-4-(1-(4-fluorophenyl)-1H-indazol-5-yl)-3,3-dimethyl-2,4-diphenylbutan-2-ol]	26	–	202
CC(C)(C(c1ccccc1)c1ccc2c(cnn2-c2ccc(F)cc2)c1)C(O)(c1cccs1)C(F)(F)F (centres unmarked) [Example 130, 1,1,1-Trifluoro-4-(1-(4-fluorophenyl)-1H-indazol-5-yl)-3,3-dimethyl-4-phenyl-2-(thiophen-2-yl)butan-2-ol]	252	–	> 10000

Second part, the compound after the results:

Ki [1] [nM]	Ki [2] [nM]	EC50 [3] [nM]	SMILES
26	53	> 10000	CC(O)C(C)(C)C(c1ccccc1)c1ccc2c(cnn2-c2ccc(F)cc2)c1 (mixture of isomers) [Example 119, 4-(1-(4-Fluorophenyl)-1H-indazol-5-yl)-3,3-dimethyl-4-phenylbutan-2-ol]
9	17	48	CC(C)(CNC(=O)NCC(F)(F)F)[C@@H](c1ccccc1)c1ccc2c(cnn2-c2ccc(F)cc2)c1 [Example 8, (S)-1-(3-(1-(4-fluorophenyl)-1H-indazol-5-yl)-2,2-dimethyl-3-phenylpropyl)-3-(2,2,2-trifluoroethyl)urea]
86	–	> 10000	O=C(CC(F)(F)F)NCC1CC1(c1ccccc1)c1ccc2c(cnn2-c2ccc(F)cc2)c1 (centres unmarked) [Example 88, 3,3,3-Trifluoro-N-((2-(1-(4-fluorophenyl)-1H-indazol-5-yl)-2-phenylcyclopropyl)methyl)propanamide]
21	–	> 10000	O=S(=O)(CC(F)(F)F)NCCC(c1ccccc1)c1ccc2c(cnn2-c2ccc(F)cc2)c1 (centres unmarked) [Example 110, 2,2,2-Trifluoro-N-(3-(1-(4-fluorophenyl)-1H-indazol-5-yl)-3-phenylpropyl)ethanesulfonamide]
12	–	240	O=C(CC(F)(F)F)NCCC(c1ccccc1)c1ccc2c(cnn2-c2ccc(F)cc2)c1 (centres unmarked) [Example 111, 3,3,3-Trifluoro-N-(3-(1-(4-fluorophenyl)-1H-indazol-5-yl)-3-phenylpropyl)propanamide]
11	–	95	O=C(NCCC(c1ccccc1)c1ccc2c(cnn2-c2ccc(F)cc2)c1)C(F)(F)F (centres unmarked) [Example 112, 2,2,2-Trifluoro-N-(3-(1-(4-fluorophenyl)-1H-indazol-5-yl)-3-phenylpropyl)acetamide]
21	–	> 10000	CC(=O)C(C)(C)C(c1ccccc1)c1ccc2c(cnn2-c2ccc(F)cc2)c1 (centres unmarked) [Example 120, 4-(1-(4-Fluorophenyl)-1H-indazol-5-yl)-3,3-dimethyl-4-phenylbutan-2-one]
20	–	> 10000	CC(C)(C(=O)C(F)(F)F)C(c1ccccc1)c1ccc2c(cnn2-c2ccc(F)cc2)c1 (centres unmarked) [Example 131, 1,1,1-Trifluoro-4-(1-(4-fluorophenyl)-1H-indazol-5-yl)-3,3-dimethyl-4-phenylbutan-2-one]
28	–	> 10000	CC(C)(COC(=O)NCC(F)(F)F)C(c1ccccc1)c1ccc2c(cnn2-c2ccc(F)cc2)c1 (centres unmarked) [Example 132, 3-(1-(4-Fluorophenyl)-1H-indazol-5-yl)-2,2-dimethyl-3-phenylpropyl 2,2,2-trifluoroethylcarbamate]
